Experimental data: PubChem BioAssay (NCI)
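All cell lines were grown in 96-well plates and treated with compound for 48 hours. TGI: concentration producing complete growth inhibition.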

Assays:
Experiment in all cases: NCI anticancer screen, dose series, 48 h
SK-OV-3 ovarian = tested on: SK-OV-3 ovarian
DU-145 prostate = tested on: DU-145 prostate
OVCAR-5 ovarian = tested on: OVCAR-5 ovarian
MDA-N = tested on: MDA-N
SF-268 CNS = tested on: SF-268 CNS
HT29 colon = tested on: HT29 colon
MDA-MB-231 breast = tested on: MDA-MB-231 breast
SK-MEL-28 melanoma = tested on: SK-MEL-28 melanoma
SN12C renal = tested on: SN12C renal
OVCAR-4 ovarian = tested on: OVCAR-4 ovarian
SF-539 CNS = tested on: SF-539 CNS
BT-549 breast = tested on: BT-549 breast
SW-620 colon = tested on: SW-620 colon
SF-295 CNS = tested on: SF-295 CNS
COLO 205 colon = tested on: COLO 205 colon
U251 CNS = tested on: U251 CNS
MDA-MB-435 = tested on: MDA-MB-435
HOP-92 NSCLC = tested on: HOP-92 NSCLC
SNB-19 CNS = tested on: SNB-19 CNS
NCI/ADR-RES ovarian = tested on: NCI/ADR-RES ovarian
M14 melanoma = tested on: M14 melanoma
T-47D breast = tested on: T-47D breast
LOX IMVI melanoma = tested on: LOX IMVI melanoma
UACC-257 melanoma = tested on: UACC-257 melanoma
HCT-116 colon = tested on: HCT-116 colon
MALME-3M melanoma = tested on: MALME-3M melanoma
NCI-H226 lung = tested on: NCI-H226 lung
UO-31 renal = tested on: UO-31 renal
ACHN renal = tested on: ACHN renal
OVCAR-3 ovarian = tested on: OVCAR-3 ovarian
IGROV1 ovarian = tested on: IGROV1 ovarian
A549 NSCLC = tested on: A549 NSCLC
CCRF-CEM leukemia = tested on: CCRF-CEM leukemia
HL-60(TB) leukemia = tested on: HL-60(TB) leukemia
NCI-H460 lung = tested on: NCI-H460 lung
786-0 renal = tested on: 786-0 renal
TK-10 renal = tested on: TK-10 renal
PC-3 prostate = tested on: PC-3 prostate
SNB-75 CNS = tested on: SNB-75 CNS
RXF 393 renal = tested on: RXF 393 renal
MOLT-4 leukemia = tested on: MOLT-4 leukemia
KM12 colon = tested on: KM12 colon
K-562 leukemia = tested on: K-562 leukemia
HOP-62 NSCLC = tested on: HOP-62 NSCLC
SK-MEL-2 melanoma = tested on: SK-MEL-2 melanoma
HCT-15 colon = tested on: HCT-15 colon
OVCAR-8 ovarian = tested on: OVCAR-8 ovarian
RPMI-8226 leukemia = tested on: RPMI-8226 leukemia
EKVX NSCLC = tested on: EKVX NSCLC
HS 578T breast = tested on: HS 578T breast
NCI-H23 lung = tested on: NCI-H23 lung
UACC-62 melanoma = tested on: UACC-62 melanoma
MCF7 breast = tested on: MCF7 breast
CAKI-1 renal = tested on: CAKI-1 renal
A498 renal = tested on: A498 renal
SK-MEL-5 melanoma = tested on: SK-MEL-5 melanoma
NCI-H522 lung = tested on: NCI-H522 lung
HCC-2998 colon = tested on: HCC-2998 colon

## O=S(=O)(/N=S(/Nc1ccccc1)C(Cl)Cl)c1ccccc1 (configuration not stated)
SK-OV-3 ovarian
  TGI: > 100 µM
DU-145 prostate
  TGI: > 100 µM
OVCAR-5 ovarian
  TGI: > 100 µM
MDA-N
  TGI: > 100 µM
SF-268 CNS
  TGI: > 100 µM
HT29 colon
  TGI: > 100 µM
MDA-MB-231 breast
  TGI: > 100 µM
SK-MEL-28 melanoma
  TGI: > 100 µM
SN12C renal
  TGI: > 100 µM
OVCAR-4 ovarian
  TGI: > 100 µM
SF-539 CNS
  TGI: > 100 µM
BT-549 breast
  TGI: > 100 µM
SW-620 colon
  TGI: > 100 µM
SF-295 CNS
  TGI: > 100 µM
COLO 205 colon
  TGI: > 100 µM
U251 CNS
  TGI: > 100 µM
MDA-MB-435
  TGI: > 100 µM
HOP-92 NSCLC
  TGI: > 100 µM
SNB-19 CNS
  TGI: > 100 µM
NCI/ADR-RES ovarian
  TGI: > 100 µM
M14 melanoma
  TGI: > 100 µM
T-47D breast
  TGI: > 100 µM
LOX IMVI melanoma
  TGI: > 100 µM
UACC-257 melanoma
  TGI: > 100 µM
HCT-116 colon
  TGI: > 100 µM
MALME-3M melanoma
  TGI: > 100 µM
NCI-H226 lung
  TGI: > 100 µM
UO-31 renal
  TGI: > 100 µM
ACHN renal
  TGI: > 100 µM
OVCAR-3 ovarian
  TGI: > 100 µM
IGROV1 ovarian
  TGI: > 100 µM
A549 NSCLC
  TGI: > 100 µM
CCRF-CEM leukemia
  TGI: > 100 µM
HL-60(TB) leukemia
  TGI: > 100 µM
NCI-H460 lung
  TGI: > 100 µM
786-0 renal
  TGI: > 100 µM
TK-10 renal
  TGI: > 100 µM
PC-3 prostate
  TGI: > 100 µM
SNB-75 CNS
  TGI: > 100 µM
RXF 393 renal
  TGI: > 100 µM
MOLT-4 leukemia
  TGI: > 100 µM
KM12 colon
  TGI: > 100 µM
K-562 leukemia
  TGI: > 100 µM
HOP-62 NSCLC
  TGI: > 100 µM
SK-MEL-2 melanoma
  TGI: > 100 µM
HCT-15 colon
  TGI: > 100 µM
OVCAR-8 ovarian
  TGI: > 100 µM
RPMI-8226 leukemia
  TGI: > 100 µM
EKVX NSCLC
  TGI: > 100 µM
HS 578T breast
  TGI: > 100 µM
NCI-H23 lung
  TGI: > 100 µM
UACC-62 melanoma
  TGI: > 100 µM
MCF7 breast
  TGI: > 100 µM

## OC1=C2c3ccccc3NC2Oc2cc(F)ccc21 (configuration not stated)
SK-OV-3 ovarian
  TGI: 26.6 µM
DU-145 prostate
  TGI: 37.5 µM
OVCAR-5 ovarian
  TGI: 38.2 µM
MDA-N
  TGI: 31.4 µM
SF-268 CNS
  TGI: 40.3 µM
HT29 colon
  TGI: 38 µM
MDA-MB-231 breast
  TGI: 33 µM
SK-MEL-28 melanoma
  TGI: > 100 µM
SN12C renal
  TGI: 25.9 µM
OVCAR-4 ovarian
  TGI: 50.6 µM
BT-549 breast
  TGI: 48.2 µM
SW-620 colon
  TGI: 47.9 µM
SF-295 CNS
  TGI: 29.5 µM
COLO 205 colon
  TGI: 27.6 µM
U251 CNS
  TGI: 29.6 µM
MDA-MB-435
  TGI: 33.9 µM
HOP-92 NSCLC
  TGI: 54.1 µM
SNB-19 CNS
  TGI: 44.6 µM
NCI/ADR-RES ovarian
  TGI: 47.3 µM
M14 melanoma
  TGI: 31.8 µM
CAKI-1 renal
  TGI: 48.4 µM
T-47D breast
  TGI: 68.1 µM
LOX IMVI melanoma
  TGI: 39.3 µM
UACC-257 melanoma
  TGI: 41.4 µM
HCT-116 colon
  TGI: 28.7 µM
MALME-3M melanoma
  TGI: 48.5 µM
NCI-H226 lung
  TGI: 89.5 µM
UO-31 renal
  TGI: 28.2 µM
ACHN renal
  TGI: 46.7 µM
OVCAR-3 ovarian
  TGI: 27.9 µM
A498 renal
  TGI: 32.4 µM
SK-MEL-5 melanoma
  TGI: 28.2 µM
NCI-H522 lung
  TGI: 52.8 µM
IGROV1 ovarian
  TGI: > 100 µM
A549 NSCLC
  TGI: 52.7 µM
CCRF-CEM leukemia
  TGI: 7.21 µM
NCI-H460 lung
  TGI: 38.5 µM
786-0 renal
  TGI: 29.9 µM
TK-10 renal
  TGI: 47.1 µM
PC-3 prostate
  TGI: 41.4 µM
RXF 393 renal
  TGI: 38.3 µM
HCC-2998 colon
  TGI: 32.4 µM
MOLT-4 leukemia
  TGI: 34.5 µM
KM12 colon
  TGI: 31.2 µM
K-562 leukemia
  TGI: 48.5 µM
HOP-62 NSCLC
  TGI: 33.2 µM
SK-MEL-2 melanoma
  TGI: 41.8 µM
HCT-15 colon
  TGI: 37.3 µM
OVCAR-8 ovarian
  TGI: > 100 µM
EKVX NSCLC
  TGI: 22.4 µM
HS 578T breast
  TGI: > 100 µM
NCI-H23 lung
  TGI: 36 µM
UACC-62 melanoma
  TGI: 34.7 µM
MCF7 breast
  TGI: > 100 µM
